Where no end group is shown, it is not given here.
biological target: HLA-A*24:03 (Homo sapiens, UniProt P04439, D101N/D140Y/D185E/E176V/F33S/G103R/G107R/I119L/I121M/I306V/K335N/L105A/L180Q/L300P/N151K/N90K/Q86E/Q94H/R106L/R138H/R89G/T104I/T345S/V100E/Y123F); experiment: biochemical; type: binding

Row | Sequence | Kd
1 | GFLNEDHWF [Peptide 14615] | 34 nM
2 | GFMNEDHWF [Peptide 14622] | 17 nM
3 | MALVAFLRF [Peptide 14610] | 13 nM
4 | TYGWNIVKL [Peptide 14623] | 76 nM
5 | WYGMEIRPL [Peptide 14612] | 119 nM
6 | WYMWLGARF [Peptide 14613] | 19 nM

biological target: HLA-A*02:01 (Homo sapiens, UniProt P04439, D140Y/D185E/D98H/E176V/E277Q/G131W/G231S/I119V/I121R/I166T/I218V/L300P/L318F/N151K/N90K/P208A/P217A/Q86G/Q94H/R138H/R169H/T345S); experiment: biochemical; type: binding

Row | Sequence | Kd
7 | ILTDGPERV [Peptide 14602] | 4 nM
8 | KMDIGVPLL [Peptide 14598] | 1 nM
9 | LLLTLLATV [Peptide 14597] | 43 nM
10 | PLNEGIMAV [Peptide 14600] | 48 nM
11 | SMVNGVVKL [Peptide 14605] | 25 nM
12 | SMVNGVVRL [Peptide 14599] | 2 nM
13 | TLYAVATTV [Peptide 14606] | 1 nM
14 | VLNPYMPTV [Peptide 14604] | 1 nM
15 | YMPSVVETL [Peptide 14607] | 1 nM

Reference: publication PMC3198402 (PLoS ONE, 2011)
